Measured values reported in the supplement of paper PMC13380429.

Legend:
[1] = tested on: A549-ACE2 infected with SARS-CoV-2; experiment: cell count relative to DMSO; higher = less toxic; settings: 24 h
Caco-2 [2] = experiment: cell viability relative to DMSO; higher = less toxic; settings: 72 h
Calu-3 [3] = experiment: as above; settings: 72 h
HepG2 [4] = experiment: as above; settings: 72 h
U2OS [5] = experiment: as above; settings: 72 h
Vero E6 [6] = experiment: as above; settings: 72 h
[7] = tested on: A549-ACE2 infected with SARS-CoV-2; experiment: SARS-CoV-2 infection rate relative to DMSO; higher = more infection; settings: 24 h
A549-ACE2 [8] = experiment: phospholipidosis EC50; higher = less potent phospholipidosis inducer
A549-ACE2 [9] = experiment: drug-induced phospholipidosis relative to tamoxifen; higher = more phospholipidosis
[10] = tested on: A549-ACE2 infected with SARS-CoV-2; experiment: morphology score (similarity to uninfected cells); higher = more like uninfected cells; settings: 24 h
Caco-2 [11] = experiment: relative viability EC50 (midpoint between 100% and the lowest measured viability); higher = less toxic; settings: 72 h
Calu-3 [12] = experiment: as above; settings: 72 h
HepG2 [13] = experiment: as above; settings: 72 h
U2OS [14] = experiment: as above; settings: 72 h
Vero E6 [15] = experiment: as above; settings: 72 h
Caco-2 [16] = experiment: drug sensitivity score (DSS) for viability; higher = more toxic; extreme values may be limits of the assay; settings: 72 h
Calu-3 [17] = experiment: as above; settings: 72 h
HepG2 [18] = experiment: as above; settings: 72 h
U2OS [19] = experiment: as above; settings: 72 h
Vero E6 [20] = experiment: as above; settings: 72 h

Cc1ccc(NC(=O)Nc2cc(C(F)(F)F)ccc2F)cc1Nc1ccc2c(c1)NC(=O)/C2=C\c1ccc[nH]1 [GNF-5837]
Settings	SARS-CoV-2 infection rate [%]	cell count [%]	cell viability [%]	morphology score	phospholipidosis EC50 [nM]
A549-ACE2 [8], 24 h	–	–	–	–	2170
A549-ACE2 [8], 48 h	–	–	–	–	2340
A549-ACE2 [8], 72 h	–	–	–	–	2600
Caco-2 [2], 1 nM	–	–	105	–	–
Caco-2 [2], 10 nM	–	–	97.6	–	–
Caco-2 [2], 100 nM	–	–	103	–	–
Caco-2 [2], 1000 nM	–	–	94.5	–	–
Caco-2 [2], 10000 nM	–	–	75.7	–	–
Calu-3 [3], 1 nM	–	–	97.9	–	–
Calu-3 [3], 10 nM	–	–	96.4	–	–
Calu-3 [3], 100 nM	–	–	100	–	–
Calu-3 [3], 1000 nM	–	–	109	–	–
Calu-3 [3], 10000 nM	–	–	96.9	–	–
HepG2 [4], 1 nM	–	–	92.5	–	–
HepG2 [4], 10 nM	–	–	98.7	–	–
HepG2 [4], 100 nM	–	–	98.5	–	–
HepG2 [4], 1000 nM	–	–	103	–	–
HepG2 [4], 10000 nM	–	–	39	–	–
U2OS [5], 1 nM	–	–	99.6	–	–
U2OS [5], 10 nM	–	–	97.2	–	–
U2OS [5], 100 nM	–	–	97.2	–	–
U2OS [5], 1000 nM	–	–	98.2	–	–
U2OS [5], 10000 nM	–	–	85.5	–	–
Vero E6 [6], 1 nM	–	–	107	–	–
Vero E6 [6], 10 nM	–	–	107	–	–
Vero E6 [6], 100 nM	–	–	97	–	–
Vero E6 [6], 1000 nM	–	–	106	–	–
Vero E6 [6], 10000 nM	–	–	83.5	–	–
[1], 0.3 µM	–	100	–	–	–
[1], 3 µM	–	105	–	–	–
[1], 10 µM	–	115	–	–	–
[1], 30 µM	–	96	–	–	–
[7], 0.3 µM	103	–	–	–	–
[7], 3 µM	85	–	–	–	–
[7], 10 µM	22	–	–	–	–
[7], 30 µM	44	–	–	–	–
[10], 0.3 µM	–	–	–	-0.15	–
[10], 3 µM	–	–	–	0.36	–
[10], 10 µM	–	–	–	0.82	–
[10], 30 µM	–	–	–	0.59	–

drug-induced phospholipidosis [%], A549-ACE2 [9]
Settings	0.3 µM	0.833333 µM	3.33333 µM	6.66667 µM	10 µM	30 µM
24 h	4.96	25.4	116	132	160	164
48 h	4.94	9.4	80.5	95.6	96.1	120
72 h	3.67	5.1	59.1	70.1	78.2	91.4

Settings	drug sensitivity score	relative viability EC50 [µM]
Caco-2 [11]	–	> 10
Caco-2 [16]	1.7	–
Calu-3 [12]	–	> 10
Calu-3 [17]	0	–
HepG2 [13]	–	3.46
HepG2 [18]	3	–
U2OS [14]	–	> 10
U2OS [19]	0.4	–
Vero E6 [15]	–	> 10
Vero E6 [20]	0.2	–
